{"source": "paper PMC11868579", "about": "(Nature Communications, 2024)", "key": {"[1]": {"assay": "Plasma protein binding, rapid equilibrium dialysis", "format": "in vitro ADME", "settings": "human plasma, 1 µM, 16 hrs", "experimental": "Measurement of aqueous kinetic solubility at pH 7.5\nSolubility was measured in 50 mM HEPES, 100 mM NaCl (15% D2O, 85% H2O) in the presence of 1 mM TCEP at pH 7.5. Samples were prepared at 50 mM in DMSO-d6, diluted x 50 into buffer affording nominal concentrations of 1 mM and analysed by 1H quantitative NMR. Spectra were acquired at 300K in 5 mm tubes on a 400 MHz Bruker Avance III HD spectrometer equipped with a BBO-F probe using water suppression (presat/Watergate). A 5 mM sample of 4-hydroxybenzoic acid was used as the qNMR standard. The raw data files were processed using MNova with qNMR […]\n(§1) Caco-2 permeability Assay\n(§2) The permeability of Compound 4 was assessed using the CacoReady system.\nCompound 4 and control compounds (propranolol, antipyrine, and vinblastine) were incubated at a final concentration of 10 µM in duplicate to either the apical (180 µL) of the monolayer to measure apical to basolateral transport (A > B) across the cell barrier or to the basolateral side (750 µL) to measure the basolateral to apical transport (B > A). […]\nPlasma protein binding measured using the rapid equilibrium dialysis (RED) device system. […] Percent bound was calculated as the ([plasma cmpt] / [plasma cmpt + […]"}, "[2]": {"tested_on": "Caco-2 monolayer", "assay": "Caco-2 permeability assay", "format": "in vitro ADME", "experimental": "as §1, §2\nCompound 4 and control compounds (propranolol, antipyrine, and vinblastine) were incubated at a final concentration of 10 µM in duplicate to either the apical (180 µL) of the monolayer to measure apical to basolateral transport (A > B) across the cell barrier or to the basolateral side (750 µL) to measure the basolateral to apical transport (B > A). For A > B spiking, test and control compounds were diluted from 10 mM DMSO stocks to 10 µM in HBSS buffer with 100 mM CaCl2·2H2O, 50 mM MgCl2·5H2O, and 0.5 mg/mL lucifer yellow made to volume with sterile water (lucifer yellow was used to determine the integrity of the Caco-2 monolayer). For B > A compound spiking, test and control compounds were prepared as for the A > B solutions without the addition of lucifer yellow. Test and control compounds were incubated for 1 h at +37 °C in a highly humidified atmosphere of 95% air and 5% CO2. […]"}, "[3]": {"assay": "Suppl Fig. 10c, concentration response of Compound 4 (test not named)", "settings": "3 experiments"}, "[4]": {"tested_on": "4E-BP1 protein expression", "assay": "Immunoblot of 4E-BP1 expression after dTAGV-1", "format": "cell-based, human", "settings": "1μM, control = 1.00", "experimental": "Supplementary Fig. 15 Expression of 4E-BP1 following dTAGV-1 treatment. a […]\n16 hr treatment of 1 µM dTAGV-1 or DMSO control in H1299 parental cells and the […]\nVinculin was used as a loading control. Results are representative of 3 biological replicates. b Quantification of 4E-BP1 protein expression […]\nwas normalised to the DMSO negative control immunoblot (mean ± SEM of 3 […]\ndifferences (p<0.05). Source data is located in the Supplementary Source Data file.\n(§3) (1 picture or pasted object on this page, not shown here)"}, "[5]": {"tested_on": "H1299 clone C3-1", "assay": "Concentration response of cell survival, clone C3-1, Incucyte", "format": "cell-based, human", "settings": "clone C3-1, 5 days continuous exposure", "experimental": "Real time monitoring of cell growth was performed with the IncuCyte ZOOM live cell imaging system (Essen BioSciences, USA). Cells were seeded in 96 well plates (Corning, cat#353072) and treated on the next day. The resulting phase-contrast images were analysed using IncuCyte ZOOM 2018A software and results were expressed as percentage confluency of cells.\nSupplementary Fig. 14 Treatment of the eIF4E-dTAG-degradation model with negative control dTAGV-1 compound. a Plot of concentration responsiveness versus cell survival for H1299 clone C3-1 following 120 hr exposure to different concentrations of dTAGv-1. Cell confluency (%) was calculated using Incucyte Zoom software and plotted as the mean ± SD from 3 biological replicates. b Immunoblot of […]\nclone treated with 0.5 µM dTAGV-1 or the negative control dTAGV-1 compound for the indicated times. Vinculin was used as a loading control. The immunoblot shown is representative of 3 biological replicates. c Real-time cell confluency measurements of H1299 parental cells treated with 0.5 or 1 µM of dTAGV-1 or the negative control […]\n2) treated with 0.5 or 1 µM of the negative control dTAGV-1 compound. Cells were monitored every 4 hr over a 6-day period. Cell confluency (%) was calculated using Incucyte Zoom software and shown as the mean ± SEM from 3 biological replicates.\nas §3"}}, "note": "Where “and” joins values, the source holds several entries; their conditions need not be identical. Equal values may be shown once.", "data": [{"smiles": "CC[C@H](O[C@H](C)CO)c1ccc(-c2ccccc2F)cc1NCCO", "note": "[Compound 4]", "values": [{"measurement": "Plasma protein binding", "setting": "[1]", "result": 98.9, "unit": "%"}, {"measurement": "permeability in Caco2 assay", "setting": "[2]", "result": "good permeability"}, {"measurement": "Caco-2 permeability Papp (A-B)", "setting": "[2]; 10 µM, 1 h", "result": 9, "unit": "×10⁻⁶ cm/s"}, {"measurement": "efflux ratio", "setting": "[2]; Caco2", "result": 1.5}, {"measurement": "Suppl Fig. 10c signal, Average", "setting": "[3]; Conc 0.0398 uM", "result": 107.08}, {"measurement": "Suppl Fig. 10c signal, Average", "setting": "[3]; Conc 0.0794 uM", "result": 87.69}, {"measurement": "Suppl Fig. 10c signal, Average", "setting": "[3]; Conc 0.1585 uM", "result": 100.85}, {"measurement": "Suppl Fig. 10c signal, Average", "setting": "[3]; Conc 0.3126 uM", "result": 97.88}, {"measurement": "Suppl Fig. 10c signal, Average", "setting": "[3]; Conc 0.6252 uM", "result": 95.93}, {"measurement": "Suppl Fig. 10c signal, Average", "setting": "[3]; Conc 1.0000 uM", "result": 93.39}, {"measurement": "Suppl Fig. 10c signal, Average", "setting": "[3]; Conc 1.9999 uM", "result": 114.58}, {"measurement": "Suppl Fig. 10c signal, Average", "setting": "[3]; Conc 3.9994 uM", "result": 94.77}, {"measurement": "Suppl Fig. 10c signal, Average", "setting": "[3]; Conc 10.0000 uM", "result": 126.74}]}, {"smiles": "CC[C@H](C(=O)N1CCCC[C@H]1C(=O)O[C@H](CCc1ccc(OC)c(OC)c1)c1ccccc1OCC(=O)NCCCCCCC(=O)N[C@H](C(=O)N1C[C@H](O)C[C@H]1C(=O)N[C@@H](C)c1ccc(-c2scnc2C)cc1)C(C)(C)C)c1cc(OC)c(OC)c(OC)c1", "note": "[dTAG^V-1]", "values": [{"measurement": "Quantification of 4E-BP1 protein expression, Average", "setting": "[4]; H1299 cells", "result": 0.99}, {"measurement": "Quantification of 4E-BP1 protein expression, Average", "setting": "[4]; eIF4E dTAG C3-1 clone", "result": 0.88}, {"measurement": "IC50", "setting": "[5]", "result": "205 nM and 206 nM"}]}]}
